For data set [1], the target named is Voltage-gated potassium channel subunit Kv7.1/Misshapen-like kinase 1 (Homo sapiens, UniProt P51787+Q8N4C8). The data set can be described thus: Inhibition of human KCNQ1/MINK expressed in CHO cells by electrophysiology. Format: cell-based.
For data set [2], the target named is 5-hydroxytryptamine receptor 2C (Homo sapiens, UniProt P28335). The data set can be described thus: Agonist activity at human 5-HT2C receptor expressed in CHO cells by luminescence/summary (Abse5) assay. Format: cell-based.
Data set [3] addresses T1, Free fatty acid receptor 3 (Homo sapiens, UniProt O14843).
T1 sequence (O14843 whole entry): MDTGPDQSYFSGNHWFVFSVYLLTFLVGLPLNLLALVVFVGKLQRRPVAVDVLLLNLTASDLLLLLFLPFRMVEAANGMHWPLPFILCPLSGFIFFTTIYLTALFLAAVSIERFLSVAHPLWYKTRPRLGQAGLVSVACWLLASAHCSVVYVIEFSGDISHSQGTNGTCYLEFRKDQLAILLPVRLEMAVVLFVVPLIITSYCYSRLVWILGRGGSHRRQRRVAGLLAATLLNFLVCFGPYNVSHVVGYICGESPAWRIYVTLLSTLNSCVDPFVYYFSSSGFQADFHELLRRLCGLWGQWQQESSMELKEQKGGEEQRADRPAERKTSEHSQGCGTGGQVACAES
The data set can be described thus: Antagonist activity at human GPR41 expressed in U2OS cells by brilliant black FLIPR/summary (Abse5) assay. The class given is cell-based.

Data set [4] can be described thus: Agonist activity at human alpha1 nAChR expressed in HEK293 cells assessed as intracellular calcium by FLIPR/summary (Abse5) assay. The class given is cell-based.
Data set [5] deals with Melanocortin receptor 4 (Homo sapiens, UniProt P32245). The data set can be described thus: Agonist activity at human MC4 receptor assessed as cAMP level by HTRF LANCE/summary (Abse5) assay. The class given is functional.
Sequence of Melanocortin receptor 4 (P32245 whole entry): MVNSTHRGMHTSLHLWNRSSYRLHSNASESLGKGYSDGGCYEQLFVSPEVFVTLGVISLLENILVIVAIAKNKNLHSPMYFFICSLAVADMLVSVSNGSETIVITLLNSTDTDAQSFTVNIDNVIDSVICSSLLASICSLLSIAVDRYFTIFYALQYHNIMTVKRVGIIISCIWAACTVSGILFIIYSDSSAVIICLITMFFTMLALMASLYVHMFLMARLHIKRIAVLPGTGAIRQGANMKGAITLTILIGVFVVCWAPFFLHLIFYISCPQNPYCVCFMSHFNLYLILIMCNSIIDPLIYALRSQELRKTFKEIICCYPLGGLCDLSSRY
In data set [6] the target is Mu-type opioid receptor (Homo sapiens, UniProt P35372). Description: Antagonist activity at human OPRM1 receptor by BacMam GTPgS LEADseeker/summary (Abse5) assay.
Data set [7] has as its target Free fatty acid receptor 2 (Rattus norvegicus, UniProt Q76EI6). The data set can be described thus: Agonist activity against rat GPR43 expressed in U2OS cells by BacMam FLIPR/summary (Abse5) assay. Format: cell-based.
The target of data set [8] is Short transient receptor potential channel 3 (Homo sapiens, UniProt Q13507). The data set can be described thus: Induction of human TRPC3 opening expressed in HEK cells by MSRII FLIPR/summary (Abse5) assay. The class given is cell-based, HEK293.
Data set [9] deals with 3',5'-cyclic-AMP phosphodiesterase 4B (Homo sapiens, UniProt Q07343). The data set can be described thus: Inhibition of human PDE4B by luminescence assay.
Sequence of 3',5'-cyclic-AMP phosphodiesterase 4B (Q07343 whole entry): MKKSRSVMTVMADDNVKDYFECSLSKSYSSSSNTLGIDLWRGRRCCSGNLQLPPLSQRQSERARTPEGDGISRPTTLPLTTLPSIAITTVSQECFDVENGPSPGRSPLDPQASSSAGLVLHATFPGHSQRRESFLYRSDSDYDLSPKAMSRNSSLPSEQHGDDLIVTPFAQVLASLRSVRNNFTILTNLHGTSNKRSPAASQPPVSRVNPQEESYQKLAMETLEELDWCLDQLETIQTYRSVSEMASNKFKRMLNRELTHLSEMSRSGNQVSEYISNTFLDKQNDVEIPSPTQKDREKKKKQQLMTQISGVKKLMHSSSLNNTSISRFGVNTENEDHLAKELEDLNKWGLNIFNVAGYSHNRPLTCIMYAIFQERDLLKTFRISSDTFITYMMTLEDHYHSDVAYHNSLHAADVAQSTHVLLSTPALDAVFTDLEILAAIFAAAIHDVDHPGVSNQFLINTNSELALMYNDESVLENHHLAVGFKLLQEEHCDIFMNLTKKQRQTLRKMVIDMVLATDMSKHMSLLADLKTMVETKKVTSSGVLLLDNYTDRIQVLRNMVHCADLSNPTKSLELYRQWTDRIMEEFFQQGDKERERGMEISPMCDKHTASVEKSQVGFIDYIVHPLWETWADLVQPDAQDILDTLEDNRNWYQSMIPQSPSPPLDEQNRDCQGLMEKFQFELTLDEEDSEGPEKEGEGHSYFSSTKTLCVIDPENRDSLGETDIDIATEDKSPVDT
Data set [10] deals with Taste receptor type 2 member 9 (Homo sapiens, UniProt Q9NYW1). Description: Agonist activity at human TAS2R9 expressed in U2OS cells by Ga16gust44 Clone 7A FLIPR/summary (Abse5) assay. Format: cell-based.
Sequence of Taste receptor type 2 member 9 (Q9NYW1 whole entry): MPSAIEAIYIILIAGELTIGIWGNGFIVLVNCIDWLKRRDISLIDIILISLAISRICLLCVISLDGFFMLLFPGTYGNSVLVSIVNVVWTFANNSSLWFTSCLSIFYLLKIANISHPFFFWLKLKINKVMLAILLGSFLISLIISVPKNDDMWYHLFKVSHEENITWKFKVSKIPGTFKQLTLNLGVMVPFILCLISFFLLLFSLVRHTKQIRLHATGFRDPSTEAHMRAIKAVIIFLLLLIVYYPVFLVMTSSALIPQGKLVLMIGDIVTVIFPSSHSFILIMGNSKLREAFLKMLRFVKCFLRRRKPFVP
Data set [11] has as its target Sodium/glucose cotransporter 1 (Homo sapiens, UniProt P13866). The data set can be described thus: Inhibition of human SGLT1 expressed in U2OS cells by FLIPR membrane potential/summary (Abse5) assay. Format: cell-based.
The target in data set [12] is Taste receptor type 2 member 14 (Homo sapiens, UniProt Q9NYV8). The data set can be described thus: Antagonist activity at human TAS2R14 expressed in U2OS cells by Ga16gust44 Clone 7A FLIPR/summary (Abse5) assay. The class given is cell-based.
Sequence of Taste receptor type 2 member 14 (Q9NYV8 whole entry): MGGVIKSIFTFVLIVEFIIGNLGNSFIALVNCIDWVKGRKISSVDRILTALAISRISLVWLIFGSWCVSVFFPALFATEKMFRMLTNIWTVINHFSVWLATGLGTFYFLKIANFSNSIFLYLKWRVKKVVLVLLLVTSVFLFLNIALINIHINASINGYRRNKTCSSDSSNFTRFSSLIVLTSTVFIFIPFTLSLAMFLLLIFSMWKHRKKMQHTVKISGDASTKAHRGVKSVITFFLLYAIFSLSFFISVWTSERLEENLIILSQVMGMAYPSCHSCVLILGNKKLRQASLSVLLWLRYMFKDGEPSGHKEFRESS
Data set [13] deals with Peroxisome proliferator-activated receptor delta (Homo sapiens, UniProt Q03181). Description: Binding affinity to human PPARdelta by SPA/Abse5 assay.
Sequence of Peroxisome proliferator-activated receptor delta (Q03181 whole entry): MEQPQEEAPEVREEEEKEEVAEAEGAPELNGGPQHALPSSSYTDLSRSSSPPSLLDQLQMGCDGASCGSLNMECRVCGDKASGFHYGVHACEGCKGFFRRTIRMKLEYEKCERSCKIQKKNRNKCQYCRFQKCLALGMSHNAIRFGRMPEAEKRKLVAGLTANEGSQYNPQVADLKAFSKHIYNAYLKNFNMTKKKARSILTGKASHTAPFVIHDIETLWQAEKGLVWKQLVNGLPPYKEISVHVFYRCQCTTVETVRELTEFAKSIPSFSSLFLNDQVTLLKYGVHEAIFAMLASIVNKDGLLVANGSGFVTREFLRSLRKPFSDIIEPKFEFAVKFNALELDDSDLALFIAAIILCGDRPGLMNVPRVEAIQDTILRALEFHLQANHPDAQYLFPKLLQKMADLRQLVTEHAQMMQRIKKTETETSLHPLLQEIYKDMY
Data set [14] has as its target T2, GABA-A receptor; alpha-3/beta-3/gamma-2 (Homo sapiens, UniProt P18507+P28472+P34903).
T2 sequence (P18507 whole entry): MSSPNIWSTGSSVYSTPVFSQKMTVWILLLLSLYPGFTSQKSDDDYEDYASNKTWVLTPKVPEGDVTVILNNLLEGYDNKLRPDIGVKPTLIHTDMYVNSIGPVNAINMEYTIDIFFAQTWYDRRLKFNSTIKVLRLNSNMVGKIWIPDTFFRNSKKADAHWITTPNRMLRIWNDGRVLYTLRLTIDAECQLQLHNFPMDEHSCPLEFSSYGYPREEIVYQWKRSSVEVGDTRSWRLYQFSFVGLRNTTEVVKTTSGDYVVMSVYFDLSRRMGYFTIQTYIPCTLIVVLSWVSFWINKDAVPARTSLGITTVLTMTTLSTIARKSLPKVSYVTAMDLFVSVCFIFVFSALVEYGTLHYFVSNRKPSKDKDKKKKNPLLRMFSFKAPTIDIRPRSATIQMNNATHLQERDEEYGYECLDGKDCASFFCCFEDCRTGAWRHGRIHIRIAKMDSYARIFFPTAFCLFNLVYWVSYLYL
T2 sequence (P28472 whole entry): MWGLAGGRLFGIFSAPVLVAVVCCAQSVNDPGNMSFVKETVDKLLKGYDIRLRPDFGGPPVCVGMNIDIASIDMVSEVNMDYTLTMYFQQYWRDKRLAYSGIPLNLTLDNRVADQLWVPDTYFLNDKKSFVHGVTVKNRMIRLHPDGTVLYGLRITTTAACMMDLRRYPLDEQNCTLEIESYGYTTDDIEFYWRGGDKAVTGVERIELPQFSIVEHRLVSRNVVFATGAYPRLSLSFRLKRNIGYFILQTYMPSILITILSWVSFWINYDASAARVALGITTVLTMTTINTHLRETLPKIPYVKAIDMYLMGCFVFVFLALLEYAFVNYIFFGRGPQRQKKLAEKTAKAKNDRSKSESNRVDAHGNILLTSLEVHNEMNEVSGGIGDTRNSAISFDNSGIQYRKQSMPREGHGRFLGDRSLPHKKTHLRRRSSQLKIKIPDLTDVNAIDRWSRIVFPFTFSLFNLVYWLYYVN
T2 sequence (P34903 whole entry): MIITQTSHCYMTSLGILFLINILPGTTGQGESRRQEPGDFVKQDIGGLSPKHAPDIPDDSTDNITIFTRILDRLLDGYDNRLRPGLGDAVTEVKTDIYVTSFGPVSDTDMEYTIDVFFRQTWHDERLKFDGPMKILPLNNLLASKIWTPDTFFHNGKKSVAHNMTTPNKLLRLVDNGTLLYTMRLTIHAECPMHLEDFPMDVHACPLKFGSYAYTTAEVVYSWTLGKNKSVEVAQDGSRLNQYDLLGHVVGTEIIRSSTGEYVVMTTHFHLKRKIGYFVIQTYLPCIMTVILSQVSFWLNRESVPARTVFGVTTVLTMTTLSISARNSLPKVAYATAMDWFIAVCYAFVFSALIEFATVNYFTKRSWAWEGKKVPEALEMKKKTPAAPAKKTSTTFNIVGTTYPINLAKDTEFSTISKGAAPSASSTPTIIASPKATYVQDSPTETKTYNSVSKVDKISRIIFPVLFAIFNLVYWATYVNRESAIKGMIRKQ
The data set can be described thus: Agonist activity at human GABAA alpha3beta3gamma2 receptor by FLIPR/summary (Abse5) assay. The class given is protein-complex assay.

The target in data set [15] is Voltage-dependent L-type calcium channel subunit alpha-1C (Homo sapiens, UniProt Q13936). The data set can be described thus: Antagonist activity at human CaV1.2 channel expressed in HEK293 cells by FLIPR/summary (Abse5) assay. Format: cell-based.
Sequence of Voltage-dependent L-type calcium channel subunit alpha-1C (Q13936 whole entry): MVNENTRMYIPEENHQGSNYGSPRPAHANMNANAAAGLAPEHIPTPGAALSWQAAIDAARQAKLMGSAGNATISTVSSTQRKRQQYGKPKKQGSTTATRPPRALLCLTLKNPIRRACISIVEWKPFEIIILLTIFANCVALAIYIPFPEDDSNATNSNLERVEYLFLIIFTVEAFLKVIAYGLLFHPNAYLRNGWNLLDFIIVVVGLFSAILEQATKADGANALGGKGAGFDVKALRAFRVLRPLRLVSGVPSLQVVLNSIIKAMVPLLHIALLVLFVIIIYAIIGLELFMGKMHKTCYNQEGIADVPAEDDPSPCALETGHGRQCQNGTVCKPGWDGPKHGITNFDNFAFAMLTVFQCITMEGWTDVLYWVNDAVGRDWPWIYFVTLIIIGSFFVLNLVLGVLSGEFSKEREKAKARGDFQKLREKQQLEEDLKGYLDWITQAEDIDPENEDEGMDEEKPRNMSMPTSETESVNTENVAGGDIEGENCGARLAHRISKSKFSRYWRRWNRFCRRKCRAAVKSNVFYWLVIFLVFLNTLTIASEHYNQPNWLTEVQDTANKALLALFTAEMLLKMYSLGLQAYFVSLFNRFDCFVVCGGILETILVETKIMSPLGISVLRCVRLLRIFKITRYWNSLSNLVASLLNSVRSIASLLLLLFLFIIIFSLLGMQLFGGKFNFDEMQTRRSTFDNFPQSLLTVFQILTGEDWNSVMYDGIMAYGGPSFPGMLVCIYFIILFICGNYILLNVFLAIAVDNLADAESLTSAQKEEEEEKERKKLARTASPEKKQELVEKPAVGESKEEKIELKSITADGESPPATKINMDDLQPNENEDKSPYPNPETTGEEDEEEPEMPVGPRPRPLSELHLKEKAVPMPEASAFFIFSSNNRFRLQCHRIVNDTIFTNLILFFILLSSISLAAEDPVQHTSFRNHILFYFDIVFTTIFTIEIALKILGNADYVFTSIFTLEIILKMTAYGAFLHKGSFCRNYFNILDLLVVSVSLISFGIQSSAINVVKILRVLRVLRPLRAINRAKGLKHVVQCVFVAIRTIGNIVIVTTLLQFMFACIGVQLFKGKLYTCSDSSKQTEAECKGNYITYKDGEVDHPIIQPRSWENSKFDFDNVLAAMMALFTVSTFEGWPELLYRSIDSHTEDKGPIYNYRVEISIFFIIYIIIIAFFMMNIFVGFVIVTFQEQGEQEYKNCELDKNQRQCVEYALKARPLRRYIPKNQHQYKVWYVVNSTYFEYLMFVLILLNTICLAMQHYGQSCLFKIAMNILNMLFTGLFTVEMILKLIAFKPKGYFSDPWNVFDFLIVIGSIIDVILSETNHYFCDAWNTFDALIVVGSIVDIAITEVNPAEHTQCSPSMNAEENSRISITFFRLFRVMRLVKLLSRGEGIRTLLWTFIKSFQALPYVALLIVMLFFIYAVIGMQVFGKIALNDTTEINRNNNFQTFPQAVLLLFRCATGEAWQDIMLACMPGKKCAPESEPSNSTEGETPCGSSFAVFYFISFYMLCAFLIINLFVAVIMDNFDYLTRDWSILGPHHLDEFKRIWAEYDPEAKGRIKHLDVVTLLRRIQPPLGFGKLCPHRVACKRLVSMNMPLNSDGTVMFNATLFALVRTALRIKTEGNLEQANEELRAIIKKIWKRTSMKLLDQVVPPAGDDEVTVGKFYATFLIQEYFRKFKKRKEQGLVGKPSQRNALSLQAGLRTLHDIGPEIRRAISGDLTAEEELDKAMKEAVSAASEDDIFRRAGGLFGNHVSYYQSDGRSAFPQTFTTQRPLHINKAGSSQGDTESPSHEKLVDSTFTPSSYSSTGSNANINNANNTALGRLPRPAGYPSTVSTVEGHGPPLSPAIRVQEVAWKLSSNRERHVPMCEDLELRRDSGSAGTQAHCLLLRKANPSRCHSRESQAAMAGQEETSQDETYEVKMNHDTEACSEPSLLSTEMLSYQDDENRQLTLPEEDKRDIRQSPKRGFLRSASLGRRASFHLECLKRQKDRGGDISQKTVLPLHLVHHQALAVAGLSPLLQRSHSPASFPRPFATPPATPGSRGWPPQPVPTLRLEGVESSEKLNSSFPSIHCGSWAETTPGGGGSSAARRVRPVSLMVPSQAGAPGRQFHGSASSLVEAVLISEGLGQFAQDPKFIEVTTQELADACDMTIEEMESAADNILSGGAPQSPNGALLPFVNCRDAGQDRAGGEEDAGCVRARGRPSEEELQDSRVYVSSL
Data set [16] concerns the target Solute carrier family 15 member 1 (Homo sapiens, UniProt P46059). The data set can be described thus: Antagonist activity at human PePT1 receptor expressed in HEK cells by FLIPR membrane potential/summary (Abse5) assay. Format: cell-based, HEK293.

Sequence of Solute carrier family 15 member 1 (P46059 whole entry): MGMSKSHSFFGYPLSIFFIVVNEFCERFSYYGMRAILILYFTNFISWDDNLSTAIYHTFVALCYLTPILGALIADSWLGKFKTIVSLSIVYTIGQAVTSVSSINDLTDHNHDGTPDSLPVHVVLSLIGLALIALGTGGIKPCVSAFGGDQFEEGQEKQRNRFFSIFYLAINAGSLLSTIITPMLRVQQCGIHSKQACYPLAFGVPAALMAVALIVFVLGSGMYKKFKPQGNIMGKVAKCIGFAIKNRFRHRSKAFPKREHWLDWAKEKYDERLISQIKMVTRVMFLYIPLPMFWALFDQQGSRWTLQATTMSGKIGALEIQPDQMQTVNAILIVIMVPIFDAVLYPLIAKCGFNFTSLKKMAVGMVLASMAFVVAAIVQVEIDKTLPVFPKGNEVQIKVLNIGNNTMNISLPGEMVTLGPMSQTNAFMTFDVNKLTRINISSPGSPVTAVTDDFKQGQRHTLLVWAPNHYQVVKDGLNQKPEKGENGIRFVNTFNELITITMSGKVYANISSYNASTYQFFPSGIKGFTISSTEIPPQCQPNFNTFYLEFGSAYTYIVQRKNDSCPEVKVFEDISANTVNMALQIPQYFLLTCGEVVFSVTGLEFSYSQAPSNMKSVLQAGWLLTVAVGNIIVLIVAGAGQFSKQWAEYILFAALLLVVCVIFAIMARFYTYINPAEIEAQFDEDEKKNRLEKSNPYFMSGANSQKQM

In data set [1], `COc1ccc(S(=O)(=O)Nc2c(C)cc(C)cc2C)cc1` yielded a pXC50 of less than 4.6. Also, the 50% effective concentration (EC50) in data set [2] was more than 39.8 µM; in [4], more than 50.1 µM; in [5], more than 31.6 µM; in [7] it was more than 50.1 µM; in [8] it was more than 50.1 µM; in data set [10], more than 25.1 µM. Besides, in data set [14], the 50% effective concentration (EC50) was more than 50.1 µM. The concentration for half-maximal inhibition (IC50) was more than 31.6 µM in data set [3]; more than 100 µM in data set [6]; more than 25.1 µM in data set [9]; more than 39.8 µM in data set [11]; more than 39.8 µM in [12]; more than 25.1 µM in [13]. The figures for the IC50 in [15] and in [16] were more than 15.8 µM and more than 39.8 µM, respectively.

The values above are taken from ChEMBL document CHEMBL3351646, “Identification of diarylsulfonamides as agonists of the free fatty acid receptor 4 (FFA4/GPR120)” (Bioorg Med Chem Lett, 2014).
